Source: ChEMBL document CHEMBL4823243, “Synergistic induction of apoptosis in resistant head and neck carcinoma and leukemia by alkoxyamide-based histone deacetylase inhibitors” (Eur J Med Chem, 2021)
The source made the active and inactive calls. No cut-off for these calls is given here.

How the values were obtained:
Histone deacetylase [1] = experiment: Inhibition of HDAC in human A2780 cells using Boc-Lys (acetyl)-AMC as substrate preincubated for 18 hrs followed by susbtrate addition and measured after 3 hrs by fluorescence microplate reader assay; format: cell-based
A2780 = experiment: Antiproliferative activity against human A2780 cells assessed as reduction in cell viability after 72 hrs by MTT assay; format: functional, cell-based; conditions: A2780, 72 h
CAL-27 = experiment: Induction of apoptosis in cisplatin resistant human CAL-27 cells assessed as caspase 3 activation at 0.3 uM pretreated for 24 hrs followed by cisplatin treatment and further incubated for 18 hrs by Caspase3/7 detection reagent based assay; format: functional, cell-based; conditions: time 42.0 hrs
[2] = Inhibition of Class 1/2b HDAC in human HL-60 cells by HDAC-Glo assay; format: cell-based
[3] = biological target: T1, Histone deacetylase (Homo sapiens) (UniProt Q13547+O15379+Q9UBN7+Q92769+Q9UQL6+Q8WUI4+Q9BY41+Q96DB2+P56524+Q9UKV0+Q969S8); experiment: Inhibition of HDAC in human CAL-27 cells assessed as combination index at 0.4 uM measured in presence of 2 uM cDDP by MTT-based Chou-Talalay method; format: cell-based
[4] = biological target: T1, Histone deacetylase (Homo sapiens); experiment: Inhibition of HDAC in human CAL-27 cells assessed as combination index at 0.2 uM measured in presence of 5 uM cDDP by MTT-based Chou-Talalay method; format: cell-based
[5] = biological target: T1, Histone deacetylase (Homo sapiens); experiment: Inhibition of HDAC in human CAL-27 cells assessed as combination index at 0.3 uM measured in presence of 2 uM cDDP by MTT-based Chou-Talalay method; format: cell-based
[6] = biological target: T1, Histone deacetylase (Homo sapiens); experiment: Inhibition of HDAC in human Cal27CisR cells assessed as potentiation of cisplatin-induced cytotoxicity by measuring fold reduction in cisplatin IC50 at 0.3 to 0.5 uM pretreated for 48 hrs followed by cisplatin addition and measured after 72 hrs by MTT assay relative to cisplatin alone; format: cell-based; conditions: dose 0.3-0.5 µM, time 120.0 hrs
[7] = biological target: T1, Histone deacetylase (Homo sapiens); experiment: Inhibition of HDAC in human CAL-27 cells assessed as potentiation of cisplatin-induced cytotoxicity by measuring fold reduction in cisplatin IC50 at 0.3 to 0.5 uM pretreated for 48 hrs followed by cisplatin addition and measured after 72 hrs by MTT assay relative to cisplatin alone; format: cell-based; conditions: dose 0.3-0.5 µM, time 120.0 hrs
Histone deacetylase [8] = experiment: Inhibition of HDAC in human Cal27CisR cells assessed as potentiation of cisplatin-induced cytotoxicity by measuring cisplatin IC50 at 0.3 to 0.5 uM pretreated for 48 hrs followed by cisplatin addition and measured after 72 hrs by MTT assay (reference value: 3.57 uM); format: cell-based
Histone deacetylase [9] = experiment: Inhibition of HDAC in human CAL-27 cells assessed as potentiation of cisplatin-induced cytotoxicity by measuring cisplatin IC50 at 0.3 to 0.5 uM pretreated for 48 hrs followed by cisplatin addition and measured after 72 hrs by MTT assay (reference value: 3.57 uM); format: cell-based
[10] = biological target: T1, Histone deacetylase (Homo sapiens); experiment: Inhibition of HDAC in human CAL-27 cells assessed as combination index at 0.3 uM measured in presence of 5 uM cDDP by MTT-based Chou-Talalay method; format: cell-based
[11] = biological target: T1, Histone deacetylase (Homo sapiens); experiment: Inhibition of HDAC in human CAL-27 cells assessed as combination index at 0.35 uM measured in presence of 5 uM cDDP by MTT-based Chou-Talalay method; format: cell-based
[12] = biological target: T1, Histone deacetylase (Homo sapiens); experiment: Inhibition of HDAC in human CAL-27 cells assessed as combination index at 0.4 uM measured in presence of 5 uM cDDP by MTT-based Chou-Talalay method; format: cell-based
[13] = biological target: T1, Histone deacetylase (Homo sapiens); experiment: Inhibition of HDAC in human CAL-27 cells assessed as combination index at 0.2 uM measured in presence of 10 uM cDDP by MTT-based Chou-Talalay method; format: cell-based
[14] = biological target: T1, Histone deacetylase (Homo sapiens); experiment: Inhibition of HDAC in human CAL-27 cells assessed as combination index at 0.25 uM measured in presence of 10 uM cDDP by MTT-based Chou-Talalay method; format: cell-based
[15] = biological target: T1, Histone deacetylase (Homo sapiens); experiment: Inhibition of HDAC in human CAL-27 cells assessed as combination index at 0.35 uM measured in presence of 10 uM cDDP by MTT-based Chou-Talalay method; format: cell-based
[16] = biological target: T1, Histone deacetylase (Homo sapiens); experiment: Inhibition of HDAC in human CAL-27 cells assessed as combination index at 0.4 uM measured in presence of 10 uM cDDP by MTT-based Chou-Talalay method; format: cell-based
[17] = biological target: T1, Histone deacetylase (Homo sapiens); experiment: Inhibition of HDAC in human Cal27CisR cells assessed as combination index at 0.1 uM measured in presence of 10 uM cDDP by MTT-based Chou-Talalay method; format: cell-based
[18] = biological target: T1, Histone deacetylase (Homo sapiens); experiment: Inhibition of HDAC in human Cal27CisR cells assessed as combination index at 0.2 uM measured in presence of 10 uM cDDP by MTT-based Chou-Talalay method; format: cell-based
[19] = biological target: T1, Histone deacetylase (Homo sapiens); experiment: Inhibition of HDAC in human Cal27CisR cells assessed as combination index at 0.4 uM measured in presence of 10 uM cDDP by MTT-based Chou-Talalay method; format: cell-based
[20] = biological target: T1, Histone deacetylase (Homo sapiens); experiment: Inhibition of HDAC in human Cal27CisR cells assessed as combination index at 0.6 uM measured in presence of 10 uM cDDP by MTT-based Chou-Talalay method; format: cell-based
[21] = biological target: T1, Histone deacetylase (Homo sapiens); experiment: Inhibition of HDAC in human Cal27CisR cells assessed as combination index at 0.1 uM measured in presence of 20 uM cDDP by MTT-based Chou-Talalay method; format: cell-based
[22] = biological target: T1, Histone deacetylase (Homo sapiens); experiment: Inhibition of HDAC in human Cal27CisR cells assessed as combination index at 0.2 uM measured in presence of 20 uM cDDP by MTT-based Chou-Talalay method; format: cell-based
[23] = biological target: T1, Histone deacetylase (Homo sapiens); experiment: Inhibition of HDAC in human Cal27CisR cells assessed as combination index at 0.3 uM measured in presence of 20 uM cDDP by MTT-based Chou-Talalay method; format: cell-based
[24] = biological target: T1, Histone deacetylase (Homo sapiens); experiment: Inhibition of HDAC in human Cal27CisR cells assessed as combination index at 0.4 uM measured in presence of 20 uM cDDP by MTT-based Chou-Talalay method; format: cell-based
[25] = biological target: T1, Histone deacetylase (Homo sapiens); experiment: Inhibition of HDAC in human Cal27CisR cells assessed as combination index at 0.5 uM measured in presence of 20 uM cDDP by MTT-based Chou-Talalay method; format: cell-based
[26] = biological target: T1, Histone deacetylase (Homo sapiens); experiment: Inhibition of HDAC in human Cal27CisR cells assessed as combination index at 0.6 uM measured in presence of 20 uM cDDP by MTT-based Chou-Talalay method; format: cell-based
[27] = biological target: T1, Histone deacetylase (Homo sapiens); experiment: Inhibition of HDAC in human Cal27CisR cells assessed as combination index at 0.1 uM measured in presence of 50 uM cDDP by MTT-based Chou-Talalay method; format: cell-based
[28] = biological target: T1, Histone deacetylase (Homo sapiens); experiment: Inhibition of HDAC in human Cal27CisR cells assessed as combination index at 0.3 uM measured in presence of 50 uM cDDP by MTT-based Chou-Talalay method; format: cell-based
[29] = biological target: T1, Histone deacetylase (Homo sapiens); experiment: Inhibition of HDAC in human Cal27CisR cells assessed as combination index at 0.4 uM measured in presence of 50 uM cDDP by MTT-based Chou-Talalay method; format: cell-based

IC50 (Histone deacetylase [1]) [nM]	IC50 (A2780) [nM]	IC50 [2] [nM]	CI [3]	CI [4]	CI [5]	CI [10]	CI [11]	CI [12]	CI [13]	CI [14]	CI [15]	CI [16]	CI [17]	CI [18]	Compound	Activity (CAL-27)	Ratio IC50 [6]	Ratio IC50 [7]	IC50 (Histone deacetylase [8]) [nM]	IC50 (Histone deacetylase [9]) [nM]	further results
480	800	73.2	0.48	1.11	0.88	0.06	0.05	0.04	0.04	0.03	0.02	0.02	2.62	0.27	O=C(CCCCCONC(=O)c1ccc2ccccc2n1)NO	Active	13.2	3.2	3670	1120	CI [19]: 0.11; CI [20]: 0.1; CI [21]: 5.25; CI [22]: 0.55; CI [23]: 0.37; CI [24]: 0.26; CI [25]: 0.33; CI [26]: 0.45; CI [27]: 0.32; CI [28]: 0.44; CI [29]: 0.47
250	19900	85.1	–	–	–	–	–	–	–	–	–	–	–	–	O=C(CCCCCONC(=O)c1nccc2ccccc12)NO	–	–	–	–	–	–
670	4050	–	0.14	0.09	0.35	0.06	0.05	0.04	0.04	0.03	0.02	0.02	4.3	2.72	O=C(CCCCCONC(=O)c1cc2ccccc2[nH]1)NO	Active	7.36	2.73	6590	1310	CI [19]: 0.59; CI [20]: 0.19; CI [21]: 2.3; CI [22]: 0.43; CI [23]: 0.29; CI [24]: 0.14; CI [25]: 0.21; CI [26]: 0.24; CI [27]: 0.36; CI [28]: 0.47; CI [29]: 0.47
